Literature values, collected in patent US6541424B2, “Manufacture and use of a herbicide formulation” (Helena Chemical Company, priority 2000, dated 2003).

Q: With `O=C(O)CNCP(=O)(O)O` [Glyphosate] as the compound, how does the solubility in water read?
A: approximately 1.2%
